Experimental data reported in patent publication US20200085784A1, “METHODS TO TREAT FIBROSIS, NASH, AND NAFLD” (Minneamrita Therapeutics, LLC, priority 2018, published 2020).
Counter-ions that a name gives are not always drawn.

How the values were obtained:
[1] = system: DEN+CCl4-induced liver fibrosis; experiment: Mouse model of CCl4+Diethylnitrosamine (DEN)-induced liver injury; type: in vivo, C57Bl6/J mice; conditions: for DEN+CCl4-induced collagen deposition (Massons Trichrome and Sirius red staining): Minnelide 0.2 mg/kg, compared to the vehicle
Procedure: Mouse model of CCl4+Diethylnitrosamine (DEN)-induced liver injury. C57Bl6/J mice (3 weeks of age; ˜15 g) received one single dose of DEN (25 mg/kg). From 8 weeks of age; (˜25 g) they receive twice a week during 4 weeks 250 μL i.p. of either olive oil or CCl4 at a dose of 0.2 ml/kg diluted in olive oil. Animals were treated with 0.2 mg/kg Minnelide after 4 weeks of CCl4.
(§1) For both models, injury and fibrosis were determined by examination of histological specimens by H&E staining as well as picrosirius red staining.

DIO-NASH mouse model = experiment: Diet-induced obese (DIO) mouse model of non-alcoholic steatohepatitis (NASH); type: in vivo, C57BL/6JRj mice; conditions: Minnelide 0.1 mg/kg PO QD, 8 weeks; compared to vehicle treated control DIO-NASH mice
Source text: To investigate the effect of 8 weeks of treatment with Minnelide alone and in combination with Elafibranor or Liraglutide in DIO-NASH mouse model, metabolic parameters, hepatic pathology and NAFLD Activity Score (NAS) including Fibrosis Stage data were collected.
Male […] mice were obtained from Janvier Labs (Le Genest Saint Isle, France). Mice had ad libitum access to tap water and either regular rodent chow (Altromin 1324, Brogaarden, Hoersholm, Denmark), or a diet high in fat (40%, containing 18% trans-fat), 40% carbohydrates (20% fructose) and 2% cholesterol (AMLN diet; D09100301, Research Diets, New Brunswick, N.J.). C57BL/6JRj mice were fed regular chow as lean chow vehicle control group or AMLN diet as DIO-NASH mice for 35 weeks prior to treatment start.
All animals included in the drug treatment experiments underwent liver biopsy for baseline characterization of hepatic parameters and stratified randomization into treatment groups. Mice are anesthetized by inhalation anesthesia using isoflurane (2-3%). […] A stratified randomization into treatment groups is performed according to liver Collagen 1a1 quantification. […]
Biochemical and histological analyses were performed as reported previously (Tølbøl, et al. World J Gastroenterol. Jan. 14, 2018; 24(2): 179-194). […] Liver homogenates were analyzed for TG and TC. […]

[2] = system: CCl4-induced liver fibrosis; experiment: Mouse model of carbon tetrachloride (CCl4) liver fibrosis; type: in vivo, C57Bl6/J mice
Procedure: Two animal models were used: Mouse model of Carbon tetrachloride (CCl4). In this model, C57Bl6/J mice (8 weeks of age; ˜25 g) received twice a week during 4 weeks 250 μL i.p. of either olive oil or CCl4 at a dose of 3.5 ml/kg diluted in olive oil. Animals were treated with 0.2 mg/kg Minnelide after 4 weeks of CCl4.
as §1

[3] = therapeutic intervention, DEN+CCl4 induced liver fibrosis
[4] = therapeutic intervention, CCl4 induced liver fibrosis

For `CC(C)[C@]12O[C@H]1[C@@H]1O[C@]13[C@]1(O[C@H]1C[C@H]1C4=C(CC[C@@]13C)C(=O)OC4)[C@@H]2OCOP(=O)(O)O` [Minnelide, 14-O-phosphonooxymethyltriptolide disodium salt], the “expression of Tnf-α, IL6, IL-1β and iNOS (inflammation associated genes)” value ([1]; 8 week time point) was “decreased”, the “expression of inflammasome genes (NLRP3, apoptosis-associated speck-like protein containing a CARD, caspase1, IL-1β, IL18)” value ([1]; 8 week time point) was “decreased” and the “steatosis, ballooning, and inflammatory foci (liver H&E staining)” value (from here on “steatosis, ballooning”) ([1]; 12 week time point) was “reduced”. For the same compound, the “steatosis, ballooning” value ([1]; DEN+CCl4 administration, 8 week time point) was “reduced”, the “α-SMA expression (immunofluorescence staining)” value ([1]; DEN+CCl4 model) was “reduced” and the “DEN+CCl4-induced collagen deposition (Massons Trichrome and Sirius red staining)” value [1] was “inhibited”. The “DEN+CCl4-induced collagen deposition (Massons Trichrome and Sirius red staining)” value ([1]; 12 week time point paragraph) was “inhibited”, the fibrosis [1, 3] was “reduction” and the plasma biochemical markers [1, 3] was “reduction”. The “reduction in liver Galectin-3 (% fractional area)” value (DIO-NASH mouse model) was 18.41%, the “steatosis, ballooning” value ([2]; CCl4 administration, 8 week time point) was “reduced” and the “α-SMA expression (immunofluorescence staining)” value ([2]; CCl4 model) was “reduced”. For the same compound, the “CCl4-induced collagen deposition (Massons Trichrome and Sirius red staining)” value ([2]; Minnelide 0.2 mg/kg, compared to the vehicle) was “inhibited”, the fibrosis [2, 4] was “reduction” and the plasma biochemical markers [2, 4] was “reduction”.
